{"source": "patent US6355799B1", "about": "“Substituted benzene compounds, process for their preparation, and herbicidal and defoliant compositions containing them” (ISK Americas Incorporated, priority 1997, dated 2002)", "assay_type_in_all_cases": "in vivo", "key": {"[1]": {"tested_on": "johnsongrass (Sorghum halepense, SORHA)", "assay": "Pre-emerge test, greenhouse herbicide activity screening", "settings": "phytotoxicity rating 0-100, 14 days after application", "procedure,_shortened": "(§1)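 Rating: 0–100 visual injury, 14 DAA. Application: acetone, 187 l/ha, 15–1000 g ai/ha, flat-fan track sprayer with nozzle 40–45 cm above soil or canopy. Post-emerge runs used 0.25% v/v surfactant on 2–3 leaf plants.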"}, "[2]": {"tested_on": "velvetleaf (Abutilon theophrasti, ABUTH)", "assay": "Pre-emerge test, greenhouse herbicide activity screening", "settings": "phytotoxicity rating 0-100, 14 days after application", "procedure,_shortened": "as §1"}, "[3]": {"tested_on": "common ragweed (Ambrosia artemisizfolia L., AMBEL)", "assay": "Pre-emerge test, greenhouse herbicide activity screening", "settings": "phytotoxicity rating 0-100, 14 days after application", "procedure,_shortened": "as §1"}, "[4]": {"tested_on": "lambsquarters (Chenopodium album, CHEAL)", "assay": "Pre-emerge test, greenhouse herbicide activity screening", "settings": "phytotoxicity rating 0-100, 14 days after application", "procedure,_shortened": "as §1"}, "[5]": {"tested_on": "sicklepod (Cassia obtusifolia, CASOB)", "assay": "Pre-emerge test, greenhouse herbicide activity screening", "settings": "phytotoxicity rating 0-100, 14 days after application", "procedure,_shortened": "as §1"}, "[6]": {"tested_on": "green foxtail (Setaria viridis, SETVI)", "assay": "Pre-emerge test, greenhouse herbicide activity screening", "settings": "phytotoxicity rating 0-100, 14 days after application", "procedure,_shortened": "as §1"}, "[7]": {"tested_on": "ivyleaf morningglory (Ipomoea hederacea, IPOHE)", "assay": "Pre-emerge test, greenhouse herbicide activity screening", "settings": "phytotoxicity rating 0-100, 14 days after application", "procedure,_shortened": "as §1"}, "[8]": {"tested_on": "barnyardgrass (Echinochloa crus-galli, ECHCG)", "assay": "Pre-emerge test, greenhouse herbicide activity screening", "settings": "phytotoxicity rating 0-100, 14 days after application", "procedure,_shortened": "as §1"}, "[9]": {"tested_on": "large crabgrass (Digitaria sanguinalis, DIGSA)", "assay": "Pre-emerge test, greenhouse herbicide activity screening", "settings": "phytotoxicity rating 0-100, 14 days after application", "procedure,_shortened": "as §1"}, "[10]": {"tested_on": "upland rice (Oryza sp., var. Tebonnet, RICE)", "assay": "Post-emerge test, crop safety", "settings": "post-emerge, 14 days after application, rating scale 0-100", "procedure,_shortened": "(§2)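 Plants grown in 10 cm pots of sandy loam mix received acetone-dissolved compounds through a moving flat-fan nozzle. Doses ranged from 15 to 1000 g ai/ha. Pre-emerge pots were seeded one day earlier, post-emerge pots 8–21 days earlier. Fourteen days on, each pot was graded 0–100 for damage.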"}, "[11]": {"tested_on": "field corn (Zea mays L., var. Dekalb 535, CORN)", "assay": "Post-emerge test, crop safety", "settings": "post-emerge, 14 days after application, rating scale 0-100", "procedure,_shortened": "as §2"}, "[12]": {"tested_on": "redroot pigweed (Amaranthus retroflexus, AMARE)", "assay": "Post-emerge test, greenhouse herbicide activity screening", "settings": "post-emerge, 14 days after application", "procedure,_shortened": "(§3)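 Herbicidal damage is scored 0 (none) to 100 (complete plant death) two weeks after a simulated field spray. Rates span 15–1000 g ai/ha, delivered in acetone at 187 l/ha. For post-emergence treatments, plants have 2–3 leaves and the spray carries 0.25% v/v non-ionic surfactant.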"}, "[13]": {"tested_on": "johnsongrass (Sorghum halepense, SORHA)", "assay": "Post-emerge test, greenhouse herbicide activity screening", "settings": "post-emerge, 14 days after application, rating scale 0-100", "procedure,_shortened": "as §3"}, "[14]": {"tested_on": "velvetleaf (Abutilon theophrasti, ABUTH)", "assay": "Post-emerge test, greenhouse herbicide activity screening", "settings": "post-emerge, 14 days after application, rating scale 0-100", "procedure,_shortened": "as §3"}, "[15]": {"tested_on": "lambsquarters (Chenopodium album, CHEAL)", "assay": "Post-emerge test, greenhouse herbicide activity screening", "settings": "post-emerge, 14 days after application, rating scale 0-100", "procedure,_shortened": "as §3"}, "[16]": {"tested_on": "sicklepod (Cassia obtusifolia, CASOB)", "assay": "Post-emerge test, greenhouse herbicide activity screening", "settings": "post-emerge, 14 days after application, rating scale 0-100", "procedure,_shortened": "as §3"}, "[17]": {"tested_on": "green foxtail (Setaria viridis, SETVI)", "assay": "Post-emerge test, greenhouse herbicide activity screening", "settings": "post-emerge, 14 days after application, rating scale 0-100", "procedure,_shortened": "as §3"}, "[18]": {"tested_on": "ivyleaf morningglory (Ipomoea hederacea, IPOHE)", "assay": "Post-emerge test, greenhouse herbicide activity screening", "settings": "post-emerge, 14 days after application, rating scale 0-100", "procedure,_shortened": "as §3"}, "[19]": {"tested_on": "barnyardgrass (Echinochloa crus-galli, ECHCG)", "assay": "Post-emerge test, greenhouse herbicide activity screening", "settings": "post-emerge, 14 days after application, rating scale 0-100", "procedure,_shortened": "as §3"}, "[20]": {"tested_on": "large crabgrass (Digitaria sanguinalis, DIGSA)", "assay": "Post-emerge test, greenhouse herbicide activity screening", "settings": "post-emerge, 14 days after application, rating scale 0-100", "procedure,_shortened": "as §3"}, "[21]": {"tested_on": "upland rice (Oryza sp., var. Tebonnet, RICE)", "assay": "Pre-emerge test, crop safety", "settings": "crop damage rating 0-100, 14 days after application", "procedure,_shortened": "as §2"}, "[22]": {"tested_on": "field corn (Zea mays L., var. Dekalb 535, CORN)", "assay": "Pre-emerge test, crop safety", "settings": "crop damage rating 0-100, 14 days after application", "procedure,_shortened": "as §2"}, "[23]": {"tested_on": "redroot pigweed (Amaranthus retroflexus, AMARE)", "assay": "Pre-emerge test, greenhouse herbicide activity screening", "settings": "phytotoxicity rating 0-100, 14 days after application", "procedure,_shortened": "as §2"}}}
{"smiles": "CCCCCC(=O)Nc1c(OC)c(Cl)cc(F)c1-n1c(=O)cc(C(F)(F)F)n(C)c1=O", "note": "[2-198]", "values": [{"measurement": "Pre-emerge Herbicidal Activity SORHA", "setting": "[1]; 63 g ai/ha", "result": 50}, {"measurement": "Pre-emerge Herbicidal Activity SORHA", "setting": "[1]; 250 g ai/ha", "result": 99}, {"measurement": "Pre-emerge Herbicidal Activity ABUTH", "setting": "[2]; 63 g ai/ha", "result": 100}, {"measurement": "Pre-emerge Herbicidal Activity ABUTH", "setting": "[2]; 250 g ai/ha", "result": 100}, {"measurement": "Pre-emerge Herbicidal Activity AMBEL", "setting": "[3]; 63 g ai/ha", "result": 100}, {"measurement": "Pre-emerge Herbicidal Activity AMBEL", "setting": "[3]; 250 g ai/ha", "result": 100}, {"measurement": "Pre-emerge Herbicidal Activity CHEAL", "setting": "[4]; 63 g ai/ha", "result": 100}, {"measurement": "Pre-emerge Herbicidal Activity CHEAL", "setting": "[4]; 250 g ai/ha", "result": 100}, {"measurement": "Pre-emerge Herbicidal Activity CASOB", "setting": "[5]; 63 g ai/ha", "result": 50}, {"measurement": "Pre-emerge Herbicidal Activity CASOB", "setting": "[5]; 250 g ai/ha", "result": 100}, {"measurement": "Pre-emerge Herbicidal Activity SETVI", "setting": "[6]; 63 g ai/ha", "result": 90}, {"measurement": "Pre-emerge Herbicidal Activity SETVI", "setting": "[6]; 250 g ai/ha", "result": 100}, {"measurement": "Pre-emerge Herbicidal Activity IPOHE", "setting": "[7]; 63 g ai/ha", "result": 100}, {"measurement": "Pre-emerge Herbicidal Activity IPOHE", "setting": "[7]; 250 g ai/ha", "result": 100}, {"measurement": "Pre-emerge Herbicidal Activity ECHCG", "setting": "[8]; 63 g ai/ha", "result": 50}, {"measurement": "Pre-emerge Herbicidal Activity ECHCG", "setting": "[8]; 250 g ai/ha", "result": 100}, {"measurement": "Pre-emerge Herbicidal Activity DIGSA", "setting": "[9]; 63 g ai/ha", "result": 100}, {"measurement": "Pre-emerge Herbicidal Activity DIGSA", "setting": "[9]; 250 g ai/ha", "result": 100}, {"measurement": "phytotoxicity rating RICE (crop damage)", "setting": "[10]; 63 g ai/ha", "result": 10}, {"measurement": "phytotoxicity rating RICE (crop damage)", "setting": "[10]; 250 g ai/ha", "result": 30}, {"measurement": "phytotoxicity rating CORN (crop damage)", "setting": "[11]; 63 g ai/ha", "result": 10}, {"measurement": "phytotoxicity rating CORN (crop damage)", "setting": "[11]; 250 g ai/ha", "result": 40}, {"measurement": "phytotoxicity rating AMARE", "setting": "[12]; 63 g ai/ha, rating scale 0-100 (0 no damage, 100 complete death)", "result": 80}, {"measurement": "phytotoxicity rating AMARE", "setting": "[12]; 250 g ai/ha, rating scale 0-100", "result": 95}, {"measurement": "phytotoxicity rating SORHA", "setting": "[13]; 63 g ai/ha", "result": 0}, {"measurement": "phytotoxicity rating SORHA", "setting": "[13]; 250 g ai/ha", "result": 50}, {"measurement": "phytotoxicity rating ABUTH", "setting": "[14]; 63 g ai/ha", "result": 80}, {"measurement": "phytotoxicity rating ABUTH", "setting": "[14]; 250 g ai/ha", "result": 100}, {"measurement": "phytotoxicity rating CHEAL", "setting": "[15]; 63 g ai/ha", "result": 80}, {"measurement": "phytotoxicity rating CHEAL", "setting": "[15]; 250 g ai/ha", "result": 90}, {"measurement": "phytotoxicity rating CASOB", "setting": "[16]; 63 g ai/ha", "result": 50}, {"measurement": "phytotoxicity rating CASOB", "setting": "[16]; 250 g ai/ha", "result": 30}, {"measurement": "phytotoxicity rating SETVI", "setting": "[17]; 63 g ai/ha", "result": 10}, {"measurement": "phytotoxicity rating SETVI", "setting": "[17]; 250 g ai/ha", "result": 10}, {"measurement": "phytotoxicity rating IPOHE", "setting": "[18]; 63 g ai/ha", "result": 80}, {"measurement": "phytotoxicity rating IPOHE", "setting": "[18]; 250 g ai/ha", "result": 100}, {"measurement": "phytotoxicity rating ECHCG", "setting": "[19]; 63 g ai/ha", "result": 5}, {"measurement": "phytotoxicity rating ECHCG", "setting": "[19]; 250 g ai/ha", "result": 5}, {"measurement": "phytotoxicity rating DIGSA", "setting": "[20]; 63 g ai/ha", "result": 10}, {"measurement": "phytotoxicity rating DIGSA", "setting": "[20]; 250 g ai/ha", "result": 10}, {"measurement": "Pre-emerge Herbicidal Activity RICE", "setting": "[21]; 63 g ai/ha", "result": 30}, {"measurement": "Pre-emerge Herbicidal Activity RICE", "setting": "[21]; 250 g ai/ha", "result": 80}, {"measurement": "Pre-emerge Herbicidal Activity CORN", "setting": "[22]; 63 g ai/ha", "result": 50}, {"measurement": "Pre-emerge Herbicidal Activity CORN", "setting": "[22]; 250 g ai/ha", "result": 90}, {"measurement": "Pre-emerge Herbicidal Activity AMARE", "setting": "[23]; 63 g ai/ha", "result": 100}, {"measurement": "Pre-emerge Herbicidal Activity AMARE", "setting": "[23]; 250 g ai/ha", "result": 100}]}
